Measured values: patent publication US12234227B2, “Pyrazole derivatives as H4 antagonist compounds” (NXERA PHARMA UK LIMITED, priority 2018, dated 2025)
Counter-ions that a name gives are not always drawn.

Assays:
human H4 receptor = target: T1, human H4 receptor (Homo sapiens, UniProt Q9H3N8); experiment: H4 Antagonist Functional cAMP Gi Assay; type: cell-based; conditions: H4 antagonist activity; for Kb: read-out: Human H4 CAMP fpKb (converted)
T1 construct: expressed in transfected cells; host or cells: HEKf cells transduced with baculovirus
T1 sequence (Q9H3N8 whole entry): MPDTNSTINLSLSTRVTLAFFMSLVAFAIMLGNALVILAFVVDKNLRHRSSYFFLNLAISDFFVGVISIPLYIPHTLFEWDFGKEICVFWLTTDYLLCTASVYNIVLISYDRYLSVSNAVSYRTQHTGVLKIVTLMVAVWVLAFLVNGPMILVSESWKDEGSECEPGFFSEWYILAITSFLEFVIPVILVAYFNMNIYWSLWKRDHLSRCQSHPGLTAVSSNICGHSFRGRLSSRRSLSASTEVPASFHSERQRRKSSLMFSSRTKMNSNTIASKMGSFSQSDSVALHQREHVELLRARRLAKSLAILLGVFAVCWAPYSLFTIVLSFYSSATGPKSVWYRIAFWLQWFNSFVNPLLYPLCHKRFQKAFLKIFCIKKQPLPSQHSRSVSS
Protocol: H4 Antagonist Functional cAMP Gi Assay
HEKf cells were infected overnight using baculovirus expressing the human H4 receptor, then centrifuged at 1,200 rpm for 5 min, frozen in cell freezing medium (Sigma) and stored at −150° C. On the day of assay, the cells were thawed and resuspended in HBSS with 500 nM IBMX to achieve a density of 1,500 cells/well. H4 ligands were prepared in DMSO and stamped by LabCyte ECHO acoustic dispensing at 25 nL in low volume plates. 10 μL/well cells were plated in the presence of 1 μM forskolin, subjected to centrifugation at 1,200 rpm for 1 min and incubated for 30 min prior to addition of Cisbio cAMP detection reagents to a total volume 20 μL/well. For the antagonist assay, cells were pre-incubated with H4 antagonist ligands for 30 min prior to addition of EC80 concentration of histamine and a further 30 min incubation. Following detection reagent addition and shaking at room temperature for 60 min, cAMP accumulation was measured using HTRF on a PheraStar plate reader. EC50 values were generated using a 4-parameter logistical fit equation to quantify agonist potencies. Functional antagonist affinity values were generated using the Cheng-Prusoff equation to calculate a pKb value using the antagonist assay data.

hERG = hERG (Homo sapiens, UniProt Q12809); experiment: hERG Assay (QPatch automated patch clamp; single-concentration assay at 30 μM and pIC50 assay); conditions: for inhibition at 30 µM: human, CHO cells stably expressing hERG
Sequence of hERG (Q12809 whole entry): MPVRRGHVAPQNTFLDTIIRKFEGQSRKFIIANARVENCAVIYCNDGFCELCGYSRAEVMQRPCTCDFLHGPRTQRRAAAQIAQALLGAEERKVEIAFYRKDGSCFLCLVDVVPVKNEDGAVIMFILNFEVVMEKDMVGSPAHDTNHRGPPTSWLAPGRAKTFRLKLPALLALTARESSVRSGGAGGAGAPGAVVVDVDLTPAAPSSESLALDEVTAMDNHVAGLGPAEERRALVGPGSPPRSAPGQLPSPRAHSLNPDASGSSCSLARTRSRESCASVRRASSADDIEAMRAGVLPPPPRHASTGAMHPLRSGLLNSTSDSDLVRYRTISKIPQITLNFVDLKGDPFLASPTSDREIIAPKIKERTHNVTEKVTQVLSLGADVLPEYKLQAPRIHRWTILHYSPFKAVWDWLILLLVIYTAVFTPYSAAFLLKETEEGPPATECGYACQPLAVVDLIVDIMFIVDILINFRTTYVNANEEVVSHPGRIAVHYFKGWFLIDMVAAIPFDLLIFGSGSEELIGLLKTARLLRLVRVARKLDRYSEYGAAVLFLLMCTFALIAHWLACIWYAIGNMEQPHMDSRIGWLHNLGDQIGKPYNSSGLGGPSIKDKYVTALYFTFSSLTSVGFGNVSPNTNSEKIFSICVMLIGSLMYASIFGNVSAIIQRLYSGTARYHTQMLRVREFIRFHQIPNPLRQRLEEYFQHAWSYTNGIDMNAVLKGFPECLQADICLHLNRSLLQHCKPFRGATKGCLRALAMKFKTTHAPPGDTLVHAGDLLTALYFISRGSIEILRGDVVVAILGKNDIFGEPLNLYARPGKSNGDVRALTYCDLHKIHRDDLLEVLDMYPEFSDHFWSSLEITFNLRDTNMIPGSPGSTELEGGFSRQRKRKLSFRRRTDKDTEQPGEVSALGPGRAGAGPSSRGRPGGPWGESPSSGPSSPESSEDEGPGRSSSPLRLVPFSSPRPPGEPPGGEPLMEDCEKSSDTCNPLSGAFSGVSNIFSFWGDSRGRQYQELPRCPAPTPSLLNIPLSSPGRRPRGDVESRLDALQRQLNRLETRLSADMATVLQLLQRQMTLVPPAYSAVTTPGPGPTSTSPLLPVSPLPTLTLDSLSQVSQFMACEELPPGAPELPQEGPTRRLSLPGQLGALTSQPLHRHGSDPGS

| Compound | Kb (human H4 receptor) [nM] | inhibition at 30 µM (hERG) [%] | other results |
| --- | --- | --- | --- |
| CN[C@@H]1CCN(c2cc(-c3[nH]nc4c3CCC4)nc(N)n2)C1 [7.4] | 6.31 | 16 | – |
| CN[C@@H]1CCN(c2cc(-c3ccn[nH]3)nc(N)n2)C1 [Example 1-1, (R)-4-(3-(methylamino)pyrrolidin-1-yl)-6-(1H-pyrazol-5-yl)pyrimidin-2-amine] | 50.1 | – | IC50 (hERG): ≥ 100000 nM |
| CN[C@@H]1CCN(c2cc(-c3ccnn3C)nc(N)n2)C1 [Example 1-2, (R)-4-(1-methyl-1H-pyrazol-5-yl)-6-(3-(methylamino)pyrrolidin-1-yl)pyrimidin-2-amine dihydrochloride] | 794 | – | – |
| CN[C@@H]1CCN(c2cc(-c3ccn(C)n3)nc(N)n2)C1 [Example 2-1, (R)-4-(1-methyl-1H-pyrazol-3-yl)-6-(3-(methylamino)pyrrolidin-1-yl)pyrimidin-2-amine] | 39.8 | – | IC50 (hERG): ≥ 100000 nM |
| CN[C@@H]1CCN(c2cc(-c3ccn(C(F)F)n3)nc(N)n2)C1 [Example 2-2, (R)-4-(1-(difluoromethyl)-1H-pyrazol-3-yl)-6-(3-(methylamino)pyrrolidin-1-yl)pyrimidin-2-amine dihydrochloride] | 50.1 | 99 | – |
| CN[C@@H]1CCN(c2cc(-c3cc(C)n[nH]3)nc(N)n2)C1 [Example 3-1, (R)-4-(3-methyl-1H-pyrazol-5-yl)-6-(3-(methylamino)pyrrolidin-1-yl)pyrimidin-2-amine] | 7.94 | < 1 | – |
| CN[C@@H]1CCN(c2cc(-c3cc(C4CC4)n[nH]3)nc(N)n2)C1 [Example 3-2, dihydrochloride] | 100 | 39 | – |
| CN[C@@H]1CCN(c2cc(-c3cc(C(F)F)n[nH]3)nc(N)n2)C1 [Example 3-3, (R)-4-(3-(difluoromethyl)-1H-pyrazol-5-yl)-6-(3-(methylamino)pyrrolidin-1-yl)pyrimidin-2-amine] | 50.1 | – | – |
| CN[C@@H]1CCN(c2cc(-c3cc(C(F)(F)F)n[nH]3)nc(N)n2)C1 [Example 3-4, (R)-4-(3-(methylamino)pyrrolidin-1-yl)-6-(3-(trifluoromethyl)-1H-pyrazol-5-yl)pyrimidin-2-amine ditrifluoroacetate salt] | 63.1 | 45 | – |
| Nc1nc(-c2cc(C(F)(F)F)n[nH]2)cc(N2CC[C@@H](N)C2)n1 [Example 3-5] | 100 | 19 | – |
| CCc1cn[nH]c1-c1cc(N2CC[C@@H](NC)C2)nc(N)n1 [Example 4-2, (R)-4-(4-ethyl-1H-pyrazol-5-yl)-6-(3-(methylamino)pyrrolidin-1-yl)pyrimidin-2-amine] | 10 | 25 | – |
| CN[C@@H]1CCN(c2cc(-c3[nH]ncc3OC)nc(N)n2)C1 [Example 4-4, (R)-4-(4-methoxy-1H-pyrazol-5-yl)-6-(3-(methylamino)pyrrolidin-1-yl)pyrimidin-2-amine] | 79.4 | 14 | – |
| CN[C@@H]1CCN(c2cc(-c3cc(C)n(C)n3)nc(N)n2)C1 [Example 5-1, diformate] | 398 | – | – |
| CN[C@@H]1CCN(c2cc(-c3cc(C)n(C(F)F)n3)nc(N)n2)C1 [Example 5-2] | 398 | 71 | – |
| CN[C@@H]1CCN(c2cc(-c3nn(C)cc3C)nc(N)n2)C1 [Example 6-1] | 20 | 12 | – |
| CN[C@@H]1CCN(c2cc(-c3nn(C(F)F)cc3C)nc(N)n2)C1 [Example 6-2] | 39.8 | 94 | – |
| CN[C@@H]1CCN(c2cc(-c3[nH]nc(C)c3Cl)nc(N)n2)C1 [Example 7-2] | 0.251 | 39 | – |
| Cc1n[nH]c(-c2cc(N3CC[C@@H](N)C3)nc(N)n2)c1C [Example 7-6] | 398 | – | – |
| Cc1n[nH]c(-c2cc(N3CC[C@@H](N)C3)nc(N)n2)c1Cl [Example 7-7] | 2 | 30 | – |
| CCc1n[nH]c(-c2cc(N3CC[C@@H](N)C3)nc(N)n2)c1C [Example 7-8] | 126 | – | – |
| CN[C@@H]1CCN(c2cc(-c3cn[nH]c3)nc(N)n2)C1 [Example 8-1] | 100 | – | IC50 (hERG): ≥ 100000 nM |
| CCn1cc(-c2cc(N3CC[C@@H](NC)C3)nc(N)n2)cn1 [Example 8-3, dihydrochloride] | 39.8 | 12 | – |
| CN[C@@H]1CCN(c2cc(-c3cnn(C4CCC4)c3)nc(N)n2)C1 [Example 8-5] | 251 | 77 | – |
| CN[C@@H]1CCN(c2cc(-c3cnn(C(F)F)c3)nc(N)n2)C1 [Example 8-6] | 20 | – | IC50 (hERG): 6310 nM |
| CN[C@@H]1CCN(c2cc(-c3cnn(CC(F)(F)F)c3)nc(N)n2)C1 [Example 8-8, dihydrochloride] | 398 | 44 | – |
| CN[C@@H]1CCN(c2cc(-c3cnn(CCO)c3)nc(N)n2)C1 [Example 8-9] | 631 | – | – |
| CN[C@@H]1CCN(c2cc(-c3cnn(C4COC4)c3)nc(N)n2)C1 [Example 8-11] | 501 | – | – |
| CN[C@@H]1CCN(c2cc(-c3cnn(CCC#N)c3)nc(N)n2)C1 [Example 8-12] | 794 | – | – |

| Compound | Kb (human H4 receptor) [nM] | inhibition at 30 µM (hERG) [%] | other results |
| --- | --- | --- | --- |
| CN[C@@H]1CCN(c2cc(-c3cnn(CC#N)c3)nc(N)n2)C1 [Example 8-13] | 200 | – | – |
| CCOC(=O)N1CCCC(n2cc(-c3cc(N4CC[C@@H](NC)C4)nc(N)n3)cn2)C1 (stereo partly shown) [Example 8-14] | 794 | – | – |
| Nc1nc(-c2cnn(C(F)(F)F)c2)cc(N2CC[C@@H](N)C2)n1 [Example 8-15, dihydrochloride] | 2.51 | 44 | IC50 (hERG): ≥ 100000 nM |
| CCn1cc(-c2cc(N3CC[C@@H](N)C3)nc(N)n2)cn1 [Example 8-17, dihydrochloride] | 50.1 | 10 | – |
| Nc1nc(-c2cnn(CC(F)(F)F)c2)cc(N2CC[C@@H](N)C2)n1 [Example 8-18, dihydrochloride] | 501 | – | – |
| CCc1[nH]ncc1-c1cc(N2CC[C@@H](NC)C2)nc(N)n1 [Example 9-2] | 12.6 | 12 | – |
| CN[C@@H]1CCN(c2cc(-c3cn[nH]c3C3CC3)nc(N)n2)C1.O=C(O)C(F)(F)F.O=C(O)C(F)(F)F [Example 9-4] | – | – | Human H4 CAMP fpKb (human H4 receptor): 7.6; hERG % inhibition at 30 μM (hERG; single concentration 30 μM, QPatch): 17% |
| CN[C@@H]1CCN(c2cc(-c3cn[nH]c3C(F)F)nc(N)n2)C1 [Example 9-5] | 39.8 | – | – |
| CN[C@@H]1CCN(c2cc(-c3cn(C)nc3C3CC3)nc(N)n2)C1 [Example 11-3, dihydrochloride] | 501 | 34 | – |
| CN[C@@H]1CCN(c2cc(-c3cn(C)nc3C(F)(F)F)nc(N)n2)C1 [Example 11-4, dihydrochloride] | 316 | 46 | – |
| CN[C@@H]1CCN(c2cc(-c3cn(C)nc3C#N)nc(N)n2)C1 [Example 11-5] | 794 | – | – |
| CN[C@@H]1CCN(c2cc(-c3cnn(C)c3C#N)nc(N)n2)C1 [Example 12-2] | 251 | 14 | – |
| CN[C@@H]1CCN(c2cc(-c3cnn4c3CCC4)nc(N)n2)C1 [Example 12-4, dihydrochloride] | 158 | 1 | – |
| CCc1cc(-c2cc(N3CC[C@@H](NC)C3)nc(N)n2)[nH]n1 [Example 15-1] | 3.16 | 68 | – |
| CN[C@H]1CCN(c2cc(-c3[nH]ncc3C)nc(N)n2)C1 [Example 16-1, ditrifluoroacetate] | 31.6 | 32 | – |
| CNC1(C)CCN(c2cc(-c3[nH]ncc3C)nc(N)n2)C1 (stereo not shown) [Example 16-2, ditrifluoroacetate] | 50.1 | 9 | – |
| CNC1CN(c2cc(-c3[nH]ncc3C)nc(N)n2)C1 [Example 16-3, ditrifluoroacetate] | 7.94 | – | – |
| Cc1cn[nH]c1-c1cc(N2CC(N)C2)nc(N)n1 [Example 16-4, ditrifluoroacetate] | 398 | – | – |
| CNC1(C)CN(c2cc(-c3[nH]ncc3C)nc(N)n2)C1 [Example 16-5, ditrifluoroacetate] | 20 | – | – |
| Cc1cn[nH]c1-c1cc(N2CC3CCNC3C2)nc(N)n1 (stereo not shown) [Example 16-6] | 631 | – | – |
| CN[C@@H]1CCN(c2cc(-c3[nH]ncc3F)nc(N)n2)C1 [Example 16-10, ditrifluoroacetate] | 12.6 | 21 | – |
| Nc1nc(-c2[nH]ncc2Cl)cc(N2CC[C@@H](N)C2)n1 [Example 16-11] | 7.94 | 27 | – |
| CN[C@@H]1CCN(c2cc(-c3[nH]nc(C)c3C(F)(F)F)nc(N)n2)C1 [Example 17-2] | 5.01 | 39 | – |
| CN[C@@H]1CCN(c2cc(-c3[nH]nc(C(F)F)c3C)nc(N)n2)C1 [Example 17-10, ditrifluoroacetate] | 0.251 | 57 | – |
| CN[C@@H]1CCN(c2cc(-c3[nH]nc(C(F)(F)F)c3C)nc(N)n2)C1 [Example 17-12] | 1.58 | 60 | – |
| CN[C@@H]1CCN(c2cc(-c3[nH]nc(Cl)c3C)nc(N)n2)C1 [Example 17-14, dihydrochloride] | 0.0631 | 44 | – |
| CN[C@@H]1CCN(c2cc(-c3[nH]nc(Cl)c3Cl)nc(N)n2)C1 [Example 17-15] | 0.0501 | 75 | – |
